From US20050130961A1, “Muscarinic M1 receptor agonists for pain management” (priority 2003, published 2005) come the findings set out here.

The structures appear in SMILES notation.

The subject of assay [1] is tactile allodynia. Kind of assay: CCI/Tactile Allodynia (von Frey hairs). The format is in vivo. To be noted: CCI rats. The procedure: (§1) Rats were anesthetized under aseptic and heated conditions using a combination of 1.6 ml ketamine (100 mg/ml) and 1.6 ml xylazine (100 mg/ml) in 6.8 ml 0.9% saline at a volume of 0.1 ml/100 g. The left quadriceps was shaved and scrubbed thoroughly with an iodine solution. The sciatic nerve was exposed at the level of the sciatic notch distally to the sciatic trifurcation. The nerve was very carefully freed from the underlying muscle and connective tissue without causing trauma to the nerve itself. Using 4-0 chromic catgut suture material, four semi-loose ligatures were tied around the sciatic nerve starting at the most proximal level, next to the sciatic notch, spaced roughly 1 mm apart and ending proximal to the sciatic trifurcation. […] The muscular incision was closed with 4-0 silk suture material and the skin was stapled with wound clips. The animals were closely observed until they recovered completely from the anesthetic. The surgery was the same for the hyperalgesia and allodynia experiments.
The onset and duration of significant mechanical allodynia post CCI surgery is approximately 10-14 days and lasts for roughly two months. Within this allodynic time frame, and for each specific allodynia experiment, pre and post drug administration measurements were taken with seven von Frey hairs which are designated by log (10* force required to bend hair, mg) and ranged from 2-26 grams (#'s 4.31-5.46). Each hair was pressed perpendicularly against the left injured plantar mid-hind paw surface with sufficient force to cause a slight bending, and was held for 6-8 seconds starting with the thinnest gauged hair and working up to the thickest. A positive response was recorded when the injured paw was sharply withdrawn, and this response was confirmed as positive by testing the next thickest gauged hair for the same response. Only when a response was seen twice was the score accepted. If the maximum gram force of 26 was reached without a response, this was considered the peak threshold cutoff for allodynic behavior and the score was recorded. Animals were considered allodynic when the post surgery baseline measurements were 6 grams and below. Two baseline days of measurements were taken with one round of testing occurring per day. On the day of drug testing, one round of baseline measurements were taken, the appropriate pretreatment was administered i.p. and a second round of measurements were recorded. Each animal was utilized in multiple experiments, with one treatment per experiment, and an appropriate washout period in between experiments.

A further assay concerns the target T1, M(2) muscarinic receptor (Homo sapiens, UniProt P08172).
T1 construct: expressed in transfected cells
T1 sequence (P08172 1-466): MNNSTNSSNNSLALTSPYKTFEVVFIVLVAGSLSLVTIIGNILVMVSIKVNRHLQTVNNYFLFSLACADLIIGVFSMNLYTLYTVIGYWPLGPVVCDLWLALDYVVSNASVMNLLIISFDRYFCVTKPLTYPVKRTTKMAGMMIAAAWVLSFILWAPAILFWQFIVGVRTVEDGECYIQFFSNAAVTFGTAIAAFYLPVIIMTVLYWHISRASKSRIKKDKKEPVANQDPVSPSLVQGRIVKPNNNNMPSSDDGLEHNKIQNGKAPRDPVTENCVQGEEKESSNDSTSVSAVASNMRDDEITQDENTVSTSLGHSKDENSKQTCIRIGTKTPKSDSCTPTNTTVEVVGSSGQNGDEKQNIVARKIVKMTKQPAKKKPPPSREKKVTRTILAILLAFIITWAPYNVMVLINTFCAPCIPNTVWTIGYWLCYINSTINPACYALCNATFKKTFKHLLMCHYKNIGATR
Briefly: R-SAT functional receptor assay, M(2). The format is cell-based. Particulars: R-SAT. The text has this: (§2) The functional receptor assay, Receptor Selection and Amplification Technology (R-SAT), essentially as disclosed in U.S. Pat. Nos. 5,707,798, 5,912,132, and 5,955,281, which are all hereby incorporated by reference in their entirety, was used to investigate the pharmacological properties of known and novel muscarinic agonists.

Assay [2] deals with tactile allodynia. Kind of assay: Partial Sciatic Ligation (PSL) Surgery/Tactile Allodynia. The format is in vivo, mice.
For the next assay, the system named is acute thermal pain. Briefly: Acute Thermal Analgesia (tail withdrawal from 55° C. water). The format is in vivo. To be noted: rats; 55° C. water. The procedure: Water was heated and maintained at 55° C.±1° C. with a probe regulated hot plate. Female rats weighing approximately 200 g -250 g were acclimated days in advance by placing them into and removing them from a plastic rat restrainer. On the day of the experiment each rat was placed in the restrainer 1 minute before the test was performed. Roughly one inch of the tail was submerged into the water as a timer was initiated. Once the tail was completely removed from the water, the timer was stopped and the time was recorded. […] One round of baseline measurements were collected. The test compound was administered and after the appropriate pretreatment interval, the procedure was repeated. Each animal was utilized in multiple experiments, with one treatment per experiment, and an appropriate washout period of at least 48 hours between experiments. The pre-treatment baseline tail withdrawal latency average was 2.281 s±0.25. […] At a dose of 10 mg/kg, morphine [F(3,23)=5.903, p<0.01] was antinociceptive.

In a further assay the test system is thermal hyperalgesia. Kind of assay: CCI/Thermal Hyperalgesia (paw withdrawal latency to radiant heat). Particulars: CCI rats. The format is in vivo. The procedure:
as §1
For hyperalgesia testing, rats were placed in a tinted plastic box on top of a clear glass, temperature-regulated floor maintained at 31±1° C. The floor contained a focal radiant heat source (halogen projection lamp CXL/CXP, 50 W, 8 v, USHIO, Tokyo).
To initiate the test, rats were placed in the tinted boxes and allowed 10-20 minutes to acclimate to the new environment. The radiant heat source was then positioned under the plantar surface of the hind paw. Upon activation of the heat source, a timer was simultaneously triggered. Upon reflex movement of the hind paw, a motion sensor was activated stopping the timer and inactivating the heat source. The thermal source was adjusted so that the average response latency for an uninjured animal was no greater than 20 seconds. Each rat had two days of pre-operative baseline latency measurements in which the left rear hind paw plantar surface was measured three to four times. Two to three left postoperative baseline latency measurements were taken before and after the treatment was given. Postoperative day 2 and 4 measurements yielded the greatest degree of hyperalgesia and thus were utilized in this assay. Each animal was tested twice with at least 48 hours separating each test.
Thermal hyperalgesia developed in the surgical-treated left paw as evidenced by a decrease in paw withdrawal latencies to a thermal stimulus. The maximal hyperalgesia occurred on post-operative days 2 through 4. Paw withdrawal latencies on the surgically-treated left side gradually returned to baseline levels over the course of 5 to 12 days post-surgery.

The target in another assay is T2, M(1) muscarinic receptor (Homo sapiens, UniProt P11229).
T2 construct: expressed in transfected cells
T2 sequence (P11229 1-460): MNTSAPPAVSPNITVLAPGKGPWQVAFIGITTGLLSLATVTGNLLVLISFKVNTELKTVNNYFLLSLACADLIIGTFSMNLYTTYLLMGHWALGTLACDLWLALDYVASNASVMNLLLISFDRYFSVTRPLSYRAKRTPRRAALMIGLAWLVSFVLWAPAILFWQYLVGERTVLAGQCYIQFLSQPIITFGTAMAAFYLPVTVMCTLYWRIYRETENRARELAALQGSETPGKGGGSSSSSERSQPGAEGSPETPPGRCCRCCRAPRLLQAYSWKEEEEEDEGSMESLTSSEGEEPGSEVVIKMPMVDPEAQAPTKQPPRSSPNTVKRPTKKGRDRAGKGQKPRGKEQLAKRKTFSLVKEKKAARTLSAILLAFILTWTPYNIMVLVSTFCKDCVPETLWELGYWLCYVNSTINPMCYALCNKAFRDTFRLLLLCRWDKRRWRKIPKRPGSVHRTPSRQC
Kind of assay: R-SAT functional receptor assay, M(1). The format is cell-based. To be noted: R-SAT.
Source text: as §2

With `CCCCC1CCN(CCCN2C(=O)COc3cc(F)ccc32)CC1` [Formula (IX)], in the assay on tactile allodynia [1], the “Antiallodynic, minimal effective dose” value is 17.8 mg/kg. Further, the “dose that reversed tactile allodynia” value in the assay with tactile allodynia [1] (i.p., post-hoc comparison) turned out to be 17.8 mg/kg. The “agonist character at M(2) receptor, in words” value on M(2) muscarinic receptor is “weak partial agonists”. Moreover, the EC50 was 501 nM at M(2) muscarinic receptor (read-out: M2 pEC50 (converted)) and 31.6 nM at M(1) muscarinic receptor (read-out: M1 pEC50 (converted)). For the same molecule, the Emax was found to be 48% on M(2) muscarinic receptor (relative to carbachol, read-out: M2 % efficacy) and 79% on M(1) muscarinic receptor (relative to carbachol, read-out: M1 % efficacy). The “effect on tactile allodynia after PSL, in words” value in the assay on tactile allodynia [2] (M(1) receptor knockout (KO) mice, 30 mg/kg) is “completely abolished”; in the assay with tactile allodynia [2] (mice, intracerebroventricular (i.c.v.) administration), “significantly reversed tactile allodynia”; with tactile allodynia [2] (wild type (WT) mice, 30 mg/kg), “significantly alleviated the tactile allodynia”. The “alleviating acute thermal pain, in words” value in the assay with acute thermal pain is “not active”. Besides, the “Antihyperalgesic, minimal effective dose” value in the assay with thermal hyperalgesia came out at 10.0 mg/kg. Moreover, the “dose that significantly reversed thermal hyperalgesia” value with thermal hyperalgesia (post-hoc comparison relative to vehicle) was 10 mg/kg. The “agonist character at M(1) receptor, in words” value on M(1) muscarinic receptor is “potent and efficacious M(1) agonist”.
